Results taken from patent US5525595A, “3- or 4-glycosyloxybenzopyran derivative and antiallergic agent containing the derivative as active ingredient” (priority 1993, dated 1996).

Assays:
[1] = test system: airway resistance in experimental asthma model; experiment: Effect on experimental asthma model in guinea pigs; format: in vivo, guinea pigs (Male hadley); conditions: Cavia porcellus; 100 mg/kg oral, OVA challenge, guinea pigs; Table 7
Procedure: The asthma is typical allergic disease and we carried out this pharmacological test by well known experimental asthma model in guinea pigs in order to confirm that the compounds of the present invention suppress the asthma. In the following, the method of the pharmacological test will be explained.
Method: Male hadley guinea pigs were immunized by intraperitoneal injection of saline (1 ml) containing 5 mg of ovalbumine (OVA) three times at interval of one week. 2 weeks after final immunization, the animals were challenged by inhalation of 1% OVA-saline solution for 1 minute and then the airway resistance of the animals were measured for 30 minutes with PULMOS-1 (Medical Interface Project Station Inc.) after the inhalation. The compounds of the present invention (test compounds) suspended in 0.5% CMCNa were given orally at a dose of 100 mg/kg. As positive control group, Disodium Cromoglicate (DSCG), well known anti-allergic agent, in saline were injected at a dose of 20 mg/kg into the vein of the animals. As vehicle control group, only 0.5% CMCNa solution were given orally. The inhibition (%) of the airway resistance in vehicle control group was calculated according to equation 5 and the result was shown in Table 7. Each experimental group consisted of 5 guinea pigs. [formula] In equation 5: A: Maximum airway resistance in vehicle control group
B: Maximum airway resistance in test compounds group or positive control group

[2] = test system: contact dermatitis induced by picryl chloride; experiment: Effect on contact dermatitis induced by picryl chloride in mice (delayed type hypersensitization); format: in vivo; conditions: Mus musculus; 100 mg/kg oral, ear thickness 24 hours after challenge; Table 6; read-out: Inhibition (%) against the increase of ear thickness
Procedure: The delayed type hypersensitization is inhibited by steroid, but can not be effected by known anti-allergic agents. In the following, the method of the pharmacological test will be explained.
Method: Mice, shaved their abdominal skin on previous day, were immunized by applying 0.1 ml of acetone containing 7 mg of picryl chloride to the skin of the abdomen. 7 days after immunization, the thickness of the ear was measured with a dial thickness gauge, then mice were challenged by painting 5 μl of 1% picryl chloride olive oil solution to each side skin of left ear. 24 hours after challenge, the thickness of the left ear was measured again and the increase (%) of thickness was calculated according to equation 2. The compounds of the present invention (test compounds) suspended in 0.5% CMCNa were forcibly administered orally at a dose of 100 mg/kg at 1 hour before and 16 hours after challenge. As vehicle control group, only 0.5% CMCNa solution were administered orally, and as positive control group, Prednisolone, steroid hormone, and Tranilast were administered orally at the doses of 10 mg/kg and 100 mg/kg, respectively.
Increase (%)=(A-B)/B×100 (Equation 2)
A: thickness of the ear at 24 hours after challenge
B: thickness of the ear before challenge
Inhibition(%)=(C-D)/C×100 (equation 3)
C: The increase (%) in vehicle control group
D: The increase (%) in test compounds group or positive control group

[3] = test system: homologous passive cutaneous anaphylaxis (PCA) reaction; experiment: Effect on homologous passive cutaneous anaphylaxis (PCA) reaction in rats; format: in vivo, rats (Male wistar rats); conditions: Rattus norvegicus, 0.5 h; 100 mg/kg oral, 1 hour before antigen, rats; Table 3
Procedure: This experimental animal model is caused by immediate type allergic reaction, namely, antigen-antibody reaction. In the following, the method of this pharmacological test will be explained.
Method: Male wistar rats (9 weeks old) were intradermally administered 0.05 ml of anti-serum against trinitrophenylated ascaris (TNP-As) into two sites on the shaved dorsal skin. 48 hours later, 3-glycosyloxybenzopyran derivatives and 4-glycosyloxybenzopyran derivatives (test compounds) suspended in 0.5% sodium carboxymethylcellulose (CMCNa) were given orally at a dose of 100 mg/kg to the animals. 1 hour after administration of Test compounds, the animals were induced anaphylaxis by injection of saline (1 ml) dissolving 5 mg of Evans Blue and 1 mg of TNP-As into the tail vein of the animals. 30 minutes after induction of anaphylaxis, animals were anesthetized by ether and killed by bleeding, and were flayed dorsal skin. The leakage of dye was assessed by measuring the diameter (mean of shortest and longest diameter) of the blue spot on the inside surface of dorsal skin. As vehicle control group, only 0.5% CMCNa solution was administered orally, and as positive control group, Tranilast suspended in 0.5% CMCNa were administered orally at a dose of 100 mg/kg to the animals with the same method as the test compounds groups. Each experimental group consisted of 5 rats. [formula] In equation 1: A: leakage of dye in vehicle control group
B: leakage of dye in test compound group or in positive control group
The anti-allergic activity of the compounds of the present invention were compared with that of analogous compounds which were published in the Patent (EP-A-0598117) by PCA reaction. This pharmacological test was performed according to the method described in Test Example 1.

SMILES | inhibition in vivo at 100 mg/kg [1] [%] | inhibition in vivo at 100 mg/kg [2] [%] | inhibition in vivo at 100 mg/kg [3] [%]
CCCCCCOc1ccc2c(O[C@@H]3O[C@H](CO)[C@H](O)[C@H](O)[C@H]3O)c(O)c(=O)oc2c1 [compound 120] | 78.9 | 65.2 | 64.3
CC(=O)Oc1ccc2c(O[C@H]3O[C@H](CO)[C@@H](O)[C@H](O)[C@@H]3O)c(O)c(=O)oc2c1 [compound 106] | 46.2 | 40.1 | 42.2
CCCCCCCCCCOc1ccc2c(O[C@@H]3O[C@H](CO)[C@H](O)[C@H](O)[C@H]3O)c(O)c(=O)oc2c1 [compound 95] | 75.4 | 65.1 | 65.1
CCC=CCCOc1ccc2c(O[C@H]3O[C@H](CO)[C@@H](O)[C@H](O)[C@@H]3O)c(O)c(=O)oc2c1 [compound 84] | 47.1 | 46.3 | 45.5
COc1ccc2c(O)c(O[C@@H]3O[C@H](COC(C)=O)[C@@H](OC(C)=O)[C@H](OC(C)=O)[C@H]3OC(C)=O)c(=O)oc2c1 [compound 4, 7-methoxy-4-hydroxy-3-(tetra-O-acety-β-D-glucopyranosyloxy)-2H-1-benzopyran-2-one] | 48.3 | 46.3 | 40.2
CC(C)=CCC/C(C)=C/COc1ccc2c(O)c(O[C@H]3O[C@H](CO)[C@@H](O)[C@H](O)[C@@H]3O)c(=O)oc2c1 [compound 29] | 56.1 | 53.6 | 45.6
COc1ccc2c(O[C@@H]3O[C@H](CO)[C@@H](O)[C@H](O)[C@H]3O)c(O)c(=O)oc2c1 [compound 61, 7-methoxy-3-hydroxy-4-(β-D-glucopyranosyloxy)-2H-1-benzopyran-2-one] | 53.3 | 50.7 | 49.2
COc1ccc2c(O)c(O[C@@H]3O[C@H](COC(C)=O)[C@H](OC(C)=O)[C@H](OC(C)=O)[C@H]3OC(C)=O)c(=O)oc2c1 [compound 9, 7-methoxy-4-hydroxy-3-(tetra-O-acetyl-β-D-galactopyranosyloxy)-2H-1-benzopyran-2-one] | 58.4 | 50.1 | 51.3
O=c1oc2cc(O)ccc2c(O[C@H]2O[C@H](CO)[C@@H](O)[C@H](O)[C@@H]2O)c1O [compound 77] | 37.3 | 39.6 | 42.7
CCCCOc1ccc2c(O[C@@H]3O[C@H](CO)[C@@H](O)[C@H](O)[C@H]3O)c(OC(C)=O)c(=O)oc2c1 [compound 74] | 55.4 | 47 | 46.8
CC(=O)Oc1ccc2c(OCc3ccccc3)c(O[C@@H]3O[C@H](COCc4ccccc4)[C@@H](OCc4ccccc4)[C@H](OCc4ccccc4)[C@H]3OCc3ccccc3)c(=O)oc2c1 [compound 12, 4-benzyloxy-7-acetoxy-3-(tetra-O-benzyl-β-D-glucopyranosyloxy)-2H-1-benzopyran-2-one] | 39.2 | 40.8 | 41.3
CC(=O)Oc1ccc2c(O)c(O[C@@H]3O[C@H](CO)[C@H](O)[C@H](O)[C@H]3O)c(=O)oc2c1 [compound 42] | 62.6 | 52.1 | 52.7
CC(C)=CCC/C(C)=C/COc1ccc2c(O)c(O[C@@H]3O[C@H](CO)[C@@H](O)[C@H](O)[C@H]3O)c(=O)oc2c1 [compound 20] | 72.4 | 56.2 | 57.2
COc1ccc2c(O)c(O[C@H]3O[C@H](COC(C)=O)[C@@H](OC(C)=O)[C@H](OC(C)=O)[C@@H]3OC(C)=O)c(=O)oc2c1 [compound 8, 7-methoxy-4-hydroxy-3-(tetra-O-acetyl-α-D-mannopyranosyloxy)-2H-1-benzopyran-2-one] | 46.7 | 45.3 | 45.2
CCCCOc1ccc2c(O)c(O[C@@H]3O[C@H](CO)[C@@H](O)[C@H](O)[C@H]3O)c(=O)oc2c1 [compound 15] | 73.6 | 58.5 | 60.4
COc1ccc2c(OCc3ccccc3)c(O[C@@H]3O[C@H](COC(C)=O)[C@@H](OC(C)=O)[C@H](OC(C)=O)[C@H]3OC(C)=O)c(=O)oc2c1 [compound 3, 7-methoxy-4-benzyloxy-3-(tetra-O-acetyl-β-D-glucopyranosyloxy)-2H-1-benzopyran-2-one] | 40 | 40.5 | 43.5
CCCCCCCCOc1ccc2c(O[C@H]3O[C@H](CO)[C@@H](O)[C@H](O)[C@@H]3O)c(O)c(=O)oc2c1 [compound 80] | 63.3 | 50.3 | 50.5
COc1ccc2c(O[C@@H]3O[C@H](CO)[C@H](O)[C@H](O)[C@H]3O)c(O)c(=O)oc2c1 [compound 92] | 57.7 | 52.6 | 50.2
CC(C)Oc1ccc2c(O[C@@H]3O[C@H](CO)[C@@H](O)[C@H](O)[C@H]3O)c(O)c(=O)oc2c1 [compound 69] | 68.3 | 56.4 | 57.2
COc1ccc2c(O)c(O[C@@H]3O[C@H](CO)[C@@H](O)[C@H](O)[C@H]3O)c(=O)oc2c1 [compound 5, 7-methoxy-4-hydroxy-3-(β-D-glucopyranosyloxy)-2H-1-benzopyran-2-one] | 62 | 51.2 | 48.7
O=c1oc2cc(O)ccc2c(O[C@@H]2O[C@H](CO)[C@@H](O)[C@H](O)[C@H]2O)c1O [compound 59, 3,7-dihydroxy-4-(β-D-glucopyranosyloxy)-2H-1-benzopyran-2-one] | 49.1 | 45.6 | 46.1
COc1ccc2c(O[C@@H]3O[C@H](CO)[C@@H](O)[C@H](O)[C@H]3O)c(OC(=O)c3ccccc3)c(=O)oc2c1 [compound 73] | 44.7 | 45.8 | 45.8
COc1ccc2c(O[C@H]3O[C@H](CO)[C@@H](O)[C@H](O)[C@@H]3O)c(O)c(=O)oc2c1 [compound 78] | 50.8 | 43.1 | 46.2
CC(C)Oc1ccc2c(O)c(O[C@H]3O[C@H](CO)[C@@H](O)[C@H](O)[C@@H]3O)c(=O)oc2c1 [compound 27] | 56.7 | 51.2 | 47.8
CCCCOc1ccc2c(O[C@@H]3O[C@H](CO)[C@@H](O)[C@H](O)[C@H]3O)c(O)c(=O)oc2c1 [compound 63, 7-butoxy-3-hydroxy-4-(β-D-glucopyranosyloxy)-2H-1-benzopyran-2-one] | 64.7 | 57.1 | 57.4
